Measured values as given in patent EP4810052A2, “HCRHR2 SELECTIVE POLYPEPTIDES” (Gubra A/S, priority 2023, dated 2026).
Like-named read-outs stand apart in the source and are kept apart here. Starred links: 1 amine or outer side, 2 acyl side, 3 side chain; linkers in the order of their positions; H or OH if unused. Non-standard residues stand in square brackets, D forms with d. Residues, ends and D or L forms follow the SMILES beside them. Groups on a side chain read outwards from the residue. *: point of attachment. C20 diacid = O=C(O)CCCCCCCCCCCCCCCCCCC(=O)*; Pro(4S-NH2) = N[C@@H]1CN[C@H](C(=O)O)C1; γGlu = O=C(O)[C@H](CCC(=O)[*:2])N[*:1]; NMeI = CC[C@H](C)[C@H](NC)C(=O)O; Nle = CCCC[C@H](N)C(=O)O; AEEA = NCCOCCOCC(=O)O; Aib = CC(C)(N)C(=O)O

Assays:
hCRHR2 = molecular target: T1, hCRHR2 (Homo sapiens, UniProt Q13324); assay: HTRF cAMP assay, determination of hCRHR2 potency (peptide libraries 5 conc., purified peptides 11 conc.); format: cell-based
T1 sequence (Q13324 1-411): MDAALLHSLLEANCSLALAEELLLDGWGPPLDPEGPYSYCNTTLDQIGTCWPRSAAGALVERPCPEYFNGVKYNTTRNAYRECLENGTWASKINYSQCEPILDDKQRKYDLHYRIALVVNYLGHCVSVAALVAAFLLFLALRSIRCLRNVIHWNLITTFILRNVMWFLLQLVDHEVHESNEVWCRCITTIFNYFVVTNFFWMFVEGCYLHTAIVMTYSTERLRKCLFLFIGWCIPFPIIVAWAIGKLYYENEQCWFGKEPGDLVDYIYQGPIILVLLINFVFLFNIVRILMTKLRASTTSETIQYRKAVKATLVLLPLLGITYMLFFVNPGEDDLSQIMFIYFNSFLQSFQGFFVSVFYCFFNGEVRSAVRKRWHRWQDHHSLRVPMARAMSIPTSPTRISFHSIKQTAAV
Outline: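 Agonist peptides are added to suspended, freshly thawed CHO-K1 cells that stably carry the human receptor. Intracellular cAMP competes with d2-cAMP for a cryptate-tagged antibody, lowering the FRET signal. A variable-slope sigmoid curve is fitted to obtain EC50.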

hCRHR1 = molecular target: T2, hCRHR1 (Homo sapiens, UniProt P34998); assay: HTRF cAMP assay, determination of hCRHR1 potency (peptide libraries 5 conc., purified peptides 11 conc.); format: cell-based
T2 sequence (P34998 24-415): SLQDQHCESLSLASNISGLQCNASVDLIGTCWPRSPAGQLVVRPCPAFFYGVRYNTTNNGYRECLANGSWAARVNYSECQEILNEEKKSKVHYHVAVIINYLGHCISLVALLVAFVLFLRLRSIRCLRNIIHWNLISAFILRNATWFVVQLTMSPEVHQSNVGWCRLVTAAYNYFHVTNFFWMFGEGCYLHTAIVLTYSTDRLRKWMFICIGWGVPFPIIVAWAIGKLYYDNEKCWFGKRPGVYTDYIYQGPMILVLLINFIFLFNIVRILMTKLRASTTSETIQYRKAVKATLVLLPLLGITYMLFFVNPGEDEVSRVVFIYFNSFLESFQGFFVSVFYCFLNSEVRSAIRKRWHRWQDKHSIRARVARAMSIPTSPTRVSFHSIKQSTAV
Outline: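 CHO-K1 cells stably expressing human CRHR1, thawed from frozen stocks just before use, were stimulated in suspension with agonist peptides. cAMP was measured by HTRF competitive immunoassay (cryptate anti-cAMP antibody vs d2-cAMP).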

[1] = Table 3, matched molecular pairs X^38 L vs Nle, peptide library of Example 4, read-out: hCRHR2 pEC50 (converted)
[2] = Table 3, matched molecular pairs X^38 L vs Nle, peptide library of Example 4, read-out: hCRHR1 pEC50 (converted)
[3] = library peptides, matched molecular pairs L vs Nle in position X^38, read-out: Potency hCRHR2 pEC50 (converted)
[4] = library peptides, matched molecular pairs L vs Nle in position X^38, read-out: Potency hCRHR1 pEC50 (converted)

Row | EC50 (hCRHR2; [1]) | EC50 (hCRHR1; [2]) | EC50 (hCRHR2; [3]) | EC50 (hCRHR1; [4]) | SMILES | further results
1 | – | – | – | – | CCCC[C@H](NC(=O)[C@@H](NC(=O)[C@H](CCC(=O)O)NC(=O)C(C)(C)NC(=O)[C@H](CC(N)=O)NC(=O)[C@@H](NC(=O)[C@H](CCCCNC(=O)COCCOCCNC(=O)COCCOCCNC(=O)CC[C@H](NC(=O)CC[C@H](NC(=O)CCCCCCCCCCCCCCCCCCC(=O)O)C(=O)O)C(=O)O)NC(=O)[C@H](C)NC(=O)[C@H](CCC(N)=O)NC(=O)[C@H](CCC(=O)O)NC(=O)[C@H](CCCNC(=N)N)NC(=O)[C@H](C)NC(=O)[C@H](C)NC(=O)[C@H](CCCNC(=N)N)NC(=O)[C@H](C)NC(=O)[C@H](CCCNC(=N)N)NC(=O)[C@H](C)NC(=O)[C@H](CCC(N)=O)NC(=O)[C@H](Cc1ccccc1)NC(=O)[C@H](CC(C)C)NC(=O)[C@H](CC(C)C)NC(=O)[C@@H](NC(=O)[C@H](CCC(N)=O)NC(=O)[C@H](CC(C)C)NC(=O)[C@H](CC(C)C)NC(=O)CNC(=O)[C@@H](NC(=O)[C@@H]1CCCN1C(=O)[C@@H](NC(=O)[C@H](CC(=O)O)NC(=O)[C@H](CC(C)C)NC(=O)[C@H](CO)NC(=O)[C@H](CC(C)C)NC(=O)[C@@H](NC(=O)[C@@H](NC)[C@@H](C)CC)C(C)C)C(C)C)[C@@H](C)CC)[C@@H](C)CC)[C@@H](C)O)[C@@H](C)CC)C(=O)N[C@@H](C)C(=O)N[C@@H](CCC(=O)O)C(=O)N[C@H](C(N)=O)C(C)C [compound 211] (H-[NMeI]VLSLDVPIGLLQILLFQARARAAREQAK([AEEA-AEEA-γGlu-γGlu-C20 diacid])TN[Aib]EI[Nle]AEV-NH2) | EC50 (hCRHR2; Table 4, library peptides having X^38 = Nle, read-out: hCRHR2 pEC50 (converted)): 0.0251 nM; EC50 (hCRHR1; Table 4, library peptides having X^38 = Nle, read-out: hCRHR1 pEC50 (converted)): 79400 nM
2 | 0.794 nM | 63100 nM | – | – | CC[C@H](C)[C@H](N)C(=O)N[C@H](C(=O)N[C@@H](CC(C)C)C(=O)N[C@@H](CO)C(=O)N[C@@H](CC(C)C)C(=O)N[C@@H](CC(=O)O)C(=O)N[C@H](C(=O)N1CCC[C@H]1C(=O)N[C@H](C(=O)NCC(=O)N[C@@H](CC(C)C)C(=O)N[C@@H](CC(C)C)C(=O)N[C@@H](CCC(N)=O)C(=O)N[C@H](C(=O)N[C@@H](CC(C)C)C(=O)N[C@@H](CC(C)C)C(=O)N[C@@H](CCC(=O)O)C(=O)N[C@@H](CCC(N)=O)C(=O)N[C@@H](C)C(=O)N[C@@H](CCCNC(=N)N)C(=O)N[C@@H](C)C(=O)N[C@@H](CCC(=O)O)C(=O)N[C@@H](CO)C(=O)N[C@@H](C)C(=O)N[C@@H](CCCNC(=N)N)C(=O)N[C@@H](CCC(=O)O)C(=O)N[C@@H](CCCNC(=N)N)C(=O)N[C@@H](C)C(=O)N[C@@H](CCCCNC(=O)COCCOCCNC(=O)COCCOCCNC(=O)CC[C@H](NC(=O)CC[C@H](NC(=O)CCCCCCCCCCCCCCCCCCC(=O)O)C(=O)O)C(=O)O)C(=O)N[C@H](C(=O)N[C@@H](CC(N)=O)C(=O)N[C@@H](C)C(=O)N[C@@H](CCC(=O)O)C(=O)N[C@H](C(=O)N[C@@H](CC(C)C)C(=O)N[C@@H](C)C(=O)N[C@@H](CCC(=O)O)C(=O)N[C@H](C(N)=O)[C@@H](C)CC)[C@@H](C)CC)[C@@H](C)O)[C@@H](C)CC)[C@@H](C)CC)C(C)C)C(C)C [SEQ ID NO: 21] (H-IVLSLDVPIGLLQILLEQARAESARERAK([AEEA-AEEA-γGlu-γGlu-C20 diacid])TNAEILAEI-NH2) | –
3 | 0.794 nM | 6310 nM | – | – | CC[C@H](C)[C@H](N)C(=O)N[C@H](C(=O)N[C@@H](CC(C)C)C(=O)N[C@@H](CO)C(=O)N[C@@H](CC(C)C)C(=O)N[C@@H](CC(=O)O)C(=O)N[C@H](C(=O)N1CCC[C@H]1C(=O)N[C@H](C(=O)NCC(=O)N[C@@H](CC(C)C)C(=O)N[C@@H](CC(C)C)C(=O)N[C@@H](CCC(N)=O)C(=O)N[C@H](C(=O)N[C@@H](CC(C)C)C(=O)N[C@@H](CC(C)C)C(=O)N[C@@H](CCC(=O)O)C(=O)N[C@@H](CCC(N)=O)C(=O)N[C@@H](C)C(=O)N[C@@H](CCCNC(=N)N)C(=O)N[C@@H](C)C(=O)N[C@@H](CCC(=O)O)C(=O)N[C@@H](C)C(=O)N[C@@H](C)C(=O)N[C@@H](CCCNC(=N)N)C(=O)N[C@@H](CCC(=O)O)C(=O)N[C@@H](CCC(N)=O)C(=O)N[C@@H](C)C(=O)N[C@@H](CCCCNC(=O)COCCOCCNC(=O)COCCOCCNC(=O)CC[C@H](NC(=O)CC[C@H](NC(=O)CCCCCCCCCCCCCCCCCCC(=O)O)C(=O)O)C(=O)O)C(=O)N[C@H](C(=O)N[C@@H](CC(N)=O)C(=O)N[C@@H](C)C(=O)N[C@@H](CCC(=O)O)C(=O)N[C@H](C(=O)N[C@@H](CC(C)C)C(=O)N[C@@H](C)C(=O)N[C@@H](CCC(=O)O)C(=O)N[C@H](C(N)=O)C(C)C)[C@@H](C)CC)[C@@H](C)O)[C@@H](C)CC)[C@@H](C)CC)C(C)C)C(C)C [SEQ ID NO: 25] (H-IVLSLDVPIGLLQILLEQARAEAAREQAK([AEEA-AEEA-γGlu-γGlu-C20 diacid])TNAEILAEV-NH2) | –
4 | – | – | 0.2 nM | 3.98 nM | CCCC[C@H](NC(=O)[C@@H](NC(=O)[C@H](CCC(=O)O)NC(=O)[C@H](C)NC(=O)[C@H](CC(N)=O)NC(=O)[C@@H](NC(=O)[C@H](CCCCNC(=O)COCCOCCNC(=O)COCCOCCNC(=O)CC[C@H](NC(=O)CC[C@H](NC(=O)CCCCCCCCCCCCCCCCCCC(=O)O)C(=O)O)C(=O)O)NC(=O)[C@H](C)NC(=O)[C@H](CCC(N)=O)NC(=O)[C@H](CCC(=O)O)NC(=O)[C@H](CCCNC(=N)N)NC(=O)[C@H](CC(C)C)NC(=O)[C@H](CCC(N)=O)NC(=O)[C@H](CCCNC(=N)N)NC(=O)[C@H](C)NC(=O)[C@H](CCCNC(=N)N)NC(=O)[C@H](C)NC(=O)[C@H](CCC(N)=O)NC(=O)[C@H](CCC(=O)O)NC(=O)[C@H](CC(C)C)NC(=O)[C@H](CC(C)C)NC(=O)[C@@H](NC(=O)[C@H](CCC(N)=O)NC(=O)[C@H](CC(C)C)NC(=O)[C@H](CC(C)C)NC(=O)CNC(=O)[C@@H](NC(=O)[C@@H]1CCCN1C(=O)[C@@H](NC(=O)[C@H](CC(=O)O)NC(=O)[C@H](CC(C)C)NC(=O)[C@H](CO)NC(=O)[C@H](CC(C)C)NC(=O)[C@@H](NC(=O)[C@@H](N)[C@@H](C)CC)C(C)C)C(C)C)[C@@H](C)CC)[C@@H](C)CC)[C@@H](C)O)[C@@H](C)CC)C(=O)N[C@@H](C)C(=O)N[C@@H](CCC(=O)O)C(=O)N[C@H](C(N)=O)C(C)C [compound 73] (H-IVLSLDVPIGLLQILLEQARARQLREQAK([AEEA-AEEA-γGlu-γGlu-C20 diacid])TNAEI[Nle]AEV-NH2) | –
5 | – | – | 1.58 nM | 1.58 nM | CC[C@H](C)[C@H](N)C(=O)N[C@H](C(=O)N[C@@H](CC(C)C)C(=O)N[C@@H](CO)C(=O)N[C@@H](CC(C)C)C(=O)N[C@@H](CC(=O)O)C(=O)N[C@H](C(=O)N1C[C@@H](N)C[C@H]1C(=O)N[C@H](C(=O)NCC(=O)N[C@@H](CC(C)C)C(=O)N[C@@H](CC(C)C)C(=O)N[C@@H](CCC(N)=O)C(=O)N[C@H](C(=O)N[C@@H](CC(C)C)C(=O)N[C@@H](CC(C)C)C(=O)N[C@@H](CCC(=O)O)C(=O)N[C@@H](CCC(N)=O)C(=O)N[C@@H](C)C(=O)N[C@@H](CCCNC(=N)N)C(=O)N[C@@H](C)C(=O)N[C@@H](CCCNC(=N)N)C(=O)N[C@H](C(=O)N[C@@H](C)C(=O)N[C@@H](CCCNC(=N)N)C(=O)N[C@@H](CCC(=O)O)C(=O)N[C@@H](CCC(N)=O)C(=O)N[C@@H](C)C(=O)N[C@@H](CCCCNC(=O)COCCOCCNC(=O)COCCOCCNC(=O)CC[C@H](NC(=O)CC[C@H](NC(=O)CCCCCCCCCCCCCCCCCCC(=O)O)C(=O)O)C(=O)O)C(=O)N[C@H](C(=O)N[C@@H](CC(N)=O)C(=O)N[C@@H](C)C(=O)N[C@@H](CCC(=O)O)C(=O)N[C@H](C(=O)N[C@@H](CC(C)C)C(=O)N[C@@H](C)C(=O)N[C@@H](CCC(=O)O)C(=O)N[C@H](C(N)=O)C(C)C)[C@@H](C)CC)[C@@H](C)O)C(C)C)[C@@H](C)CC)[C@@H](C)CC)C(C)C)C(C)C [compound 76] (H-IVLSLDV[Pro(4S-NH2)]IGLLQILLEQARARVAREQAK([AEEA-AEEA-γGlu-γGlu-C20 diacid])TNAEILAEV-NH2) | –
